According to patent publication US10414740B2, “Glutaminase inhibitors and method of use” (Agios Pharmaceuticals, Inc., priority 2012, dated 2019):

The compounds below were run against T1, glutaminase (GAC) (Homo sapiens, UniProt O94925) (assay: glutaminase coupled endpoint assay (Example A)). Details: inhibition of glutaminase; IC50 tested in an assay of Example A or Example B.
T1 sequence (O94925 55-598 isoform O94925-3 limits assumed): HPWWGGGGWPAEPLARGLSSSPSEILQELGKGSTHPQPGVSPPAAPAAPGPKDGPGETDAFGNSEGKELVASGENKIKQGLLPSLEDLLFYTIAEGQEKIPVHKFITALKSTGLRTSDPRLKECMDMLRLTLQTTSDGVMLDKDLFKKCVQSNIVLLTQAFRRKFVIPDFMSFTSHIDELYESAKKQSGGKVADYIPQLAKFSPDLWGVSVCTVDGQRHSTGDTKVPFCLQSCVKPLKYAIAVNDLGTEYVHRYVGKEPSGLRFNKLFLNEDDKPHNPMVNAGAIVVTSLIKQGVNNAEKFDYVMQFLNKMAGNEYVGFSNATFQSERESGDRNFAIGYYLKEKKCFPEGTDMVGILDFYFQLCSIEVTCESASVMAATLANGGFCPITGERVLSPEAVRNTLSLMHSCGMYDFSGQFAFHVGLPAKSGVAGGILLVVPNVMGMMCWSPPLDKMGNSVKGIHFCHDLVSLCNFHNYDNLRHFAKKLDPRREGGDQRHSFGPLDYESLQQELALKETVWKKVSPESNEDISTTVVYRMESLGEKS
Type: biochemical
Method: In this example, the enzymatic activity of glutaminase is measured through a coupled endpoint assay. […] The glutamate produced is converted to 2-OG by a kinetic excess of glutamate dehydrogenase. […] However, a kinetic excess of the third coupling enzyme, diaphorase, recycles NAD from NADH to keep the NAD concentration constant during the timecourse of the assay. Diaphorase, also supplied in kinetic excess, oxidizes NADH produced by GDH back to NAD with the concomitant reduction of rezasurin to the highly fluorescent resorufin. […] A reduction in the signal indicates inhibition of some component of the coupled enzyme system. Prospective hits are counterscreened against GDH/diaphorase alone to remove hits to the coupling enzyme system in a second assay.
2. […] Add 1 μl a compound in 100% DMSO 2. Add 40 μl of Enzyme Mix and incubate for 60 minute at room temperature 3. Add 10 μl of Substrate Mix to start reaction 4.

| IC50 [nM] | SMILES |
| --- | --- |
| 100 to 500 | O=C(CCC(=O)c1ccccc1)Nc1nnc(CCCCc2nnc(NC(=O)CCC(=O)c3ccccc3)s2)s1 [Compound 112, N,N′-(5,5′-(butane-1,4-diyl)bis(1,3,4-thiadiazole-5,2-diyl))bis(4-oxo-4-phenylbutanamide)] |
| 100 to 500 | Cc1ccccc1CC(=O)Nc1nnc(CCCCc2nnc(NC(=O)Cc3ccccc3C)s2)s1 [Compound 114, N,N′-(5,5′-(butane-1,4-diyl)bis(1,3,4-thiadiazole-5,2-diyl))bis(2-o-tolylacetamide)] |
| < 100 | O=C(Cc1ccc2c(c1)OCO2)Nc1nnc(CCCCc2nnc(NC(=O)Cc3ccc4c(c3)OCO4)s2)s1 [Compound 55, N,N′-(5,5′-(butane-1,4-diyl)bis(1,3,4-thiadiazole-5,2-diyl))bis(2-(benzo[d][1,3]dioxol-5-yl)acetamide)] |
| 1000 to 10000 | O=C(CCc1ccccc1)Nc1nnc(CCCCCc2nnc(NC(=O)CCc3ccccc3)s2)s1 [Compound 20, N,N′-(5,5′-(pentane-1,5-diyl)bis(1,3,4-thiadiazole-5,2-diyl))bis(3-phenylpropanamide)] |
| 100 to 500 | O=C(CCOc1ccccc1)Nc1nnc(CCCCc2nnc(NC(=O)CCOc3ccccc3)s2)s1 [Compound 111, N,N′-(5,5′-(butane-1,4-diyl)bis(1,3,4-thiadiazole-5,2-diyl))bis(3-phenoxypropanamide)] |
| 100 to 500 | O=C(Cc1ccccn1)Nc1nnc(CC[S+]([O-])CCc2nnc(NC(=O)Cc3ccccn3)s2)s1 [Compound 17, N,N′-(5,5′-(sulfinylbis(ethane-2,1-diyl))bis(1,3,4-thiadiazole-5,2-diyl))bis(2-(pyridin-2-yl)acetamide)] |
| 1000 to 10000 | CC(C)(C)CC(=O)Nc1nnc(CCCCc2nnc(NC(=O)CC(C)(C)C)s2)s1 [Compound 96] |
| 100 to 500 | CC(=O)Nc1nnc(CCCCc2nnc(NC(=O)Cc3ccccc3)s2)s1 [Compound 98] |
| 100 to 500 | O=C(Cc1cccnc1)Nc1nnc(CCCCCc2nnc(NC(=O)Cc3cccnc3)s2)s1 [Compound 10, N,N′-(5,5′-(pentane-1,5-diyl)bis(1,3,4-thiadiazole-5,2-diyl))bis(2-(pyridin-3-yl)acetamide)] |
| 100 to 500 | CN(C)c1ccc(CC(=O)Nc2nnc(CCCCc3nnc(NC(=O)Cc4ccc(N(C)C)cc4)s3)s2)cc1 [Compound 107, N,N′-(5,5′-(butane-1,4-diyl)bis(1,3,4-thiadiazole-5,2-diyl))bis(2-(4-(dimethylamino)phenyl)acetamide)] |
| 100 to 500 | CC(C(=O)Nc1nnc(CCCCc2nnc(NC(=O)C(C)c3ccc(Cl)cc3)s2)s1)c1ccc(Cl)cc1 (centres unmarked) [Compound 52, N,N′-(5,5′-(butane-1,4-diyl)bis(1,3,4-thiadiazole-5,2-diyl))bis(2-(4-chlorophenyl)propanamide)] |
| 1000 to 10000 | O=C(Cc1ccccn1)Nc1nnc(CC/C=C/CCc2nnc(NC(=O)Cc3ccccn3)s2)s1 [Compound 25] |
| < 100 | COc1ccc(CC(=O)Nc2nnc(CCS(=O)(=O)CCc3nnc(NC(=O)Cc4ccc(OC)c(OC)c4)s3)s2)cc1OC [Compound 30, N,N′-(5,5′-(2,2′-sulfonylbis(ethane-2,1-diyl))bis(1,3,4-thiadiazole-5,2-diyl))bis(2-(3,4-dimethoxyphenyl)acetamide)] |
| < 100 | O=C(Cc1c[nH]c2ccccc12)Nc1nnc(CCCCc2nnc(NC(=O)Cc3c[nH]c4ccccc34)s2)s1 [Compound 87, N,N′-(5,5′-(butane-1,4-diyl)bis(1,3,4-thiadiazole-5,2-diyl))bis(2-(1H-indol-3-yl)acetamide)] |
| 500 to 1000 | O=C(CCc1nnc(NC(=O)Cc2ccccn2)s1)CCc1nnc(NC(=O)Cc2ccccn2)s1 [Compound 73] |
| 1000 to 10000 | O=C(CCN1CCCCC1)Nc1nnc(CCCCc2nnc(NC(=O)CCN3CCCCC3)s2)s1 [Compound 59] |
| 100 to 500 | CN(CC(=O)Nc1nnc(CCCCc2nnc(NC(=O)CN(C)C(=O)OC(C)(C)C)s2)s1)C(=O)OC(C)(C)C [Compound 46, Di-tert-butyl 2,2′-(5,5′-(butane-1,4-diyl)bis(1,3,4-thiadiazole-5,2-diyl))bis(azanediyl)bis(2-oxoethane-2,1-diyl)bis(methylcarbamate)] |
| < 100 | O=C(Nc1nnc(CCS(=O)(=O)CCc2nnc(NC(=O)OCc3ccccc3)s2)s1)OCc1ccccc1 [Compound 19, Dibenzyl (5,5′-(sulfonylbis(ethane-2,1-diyl))bis(1,3,4-thiadiazole-5,2-diyl))dicarbamate] |

| IC50 [nM] | SMILES |
| --- | --- |
| 100 to 500 | COc1cccc(CCC(=O)Nc2nnc(CCCCc3nnc(NC(=O)CCc4cccc(OC)c4OC)s3)s2)c1OC [Compound 106, N,N′-(5,5′-(butane-1,4-diyl)bis(1,3,4-thiadiazole-5,2-diyl))bis(3-(2,3-dimethoxyphenyl)propanamide)] |
| < 100 | O=C(Cc1c[nH]c2cnccc12)Nc1nnc(CCCCc2nnc(NC(=O)Cc3c[nH]c4cnccc34)s2)s1 [Compound 125, N,N′-(5,5′-(butane-1,4-diyl)bis(1,3,4-thiadiazole-5,2-diyl))bis(2-(1H-pyrrolo[2,3-c]pyridin-3-yl)acetamide)] |
| 500 to 1000 | CC(C)(C(=O)Nc1nnc(CCCCc2nnc(NC(=O)C(C)(C)c3ccccc3)s2)s1)c1ccccc1 [Compound 88, N,N′-(5,5′-(butane-1,4-diyl)bis(1,3,4-thiadiazole-5,2-diyl))bis(2-methyl-2-phenylpropanamide)] |
| 1000 to 10000 | O=C(Nc1nnc(CCCCc2nnc(NC(=O)C3CC3)s2)s1)C1CC1 [Compound 105] |
| 100 to 500 | CC(CC(=O)c1ccccc1)C(=O)Nc1nnc(CCCCc2nnc(NC(=O)C(C)CC(=O)c3ccccc3)s2)s1 (centres unmarked) [Compound 62, N,N′-(5,5′-(butane-1,4-diyl)bis(1,3,4-thiadiazole-5,2-diyl))bis(2-methyl-4-oxo-4-phenylbutanamide)] |
| 100 to 500 | O=C(NCc1ccccc1)c1nnc(CCCCc2nnc(C(=O)NCc3ccccc3)s2)s1 [Compound 100] |
| 100 to 500 | CC(=O)CCCCC(=O)Nc1nnc(CCCCc2nnc(NC(=O)CCCCC(C)=O)s2)s1 [Compound 72, N,N′-(5,5′-(butane-1,4-diyl)bis(1,3,4-thiadiazole-5,2-diyl))bis(6-oxoheptanamide)] |
| 100 to 500 | O=C(Nc1nnc(CCCCc2nnc(NC(=O)C3CC=CC3)s2)s1)C1CC=CC1 [Compound 64, N,N′-(5,5′-(butane-1,4-diyl)bis(1,3,4-thiadiazole-5,2-diyl))dicyclopent-3-enecarboxamide] |
| < 100 | O=C(Cc1cccc2[nH]ccc12)Nc1nnc(CCCCc2nnc(NC(=O)Cc3cccc4[nH]ccc34)s2)s1 [Compound 123, N,N′-(5,5′-(butane-1,4-diyl)bis(1,3,4-thiadiazole-5,2-diyl))bis(2-(1H-indol-4-yl)acetamide)] |
| 500 to 1000 | O=C(Nc1nnc(CCCCc2nnc(NC(=O)C3CCCC3)s2)s1)C1CCCC1 [Compound 95, N,N′-(5,5′-(butane-1,4-diyl)bis(1,3,4-thiadiazole-5,2-diyl))dicyclopentanecarboxamide] |
| < 100 | O=C(Cc1cccnc1)Nc1nnc(CCS(=O)(=O)CCc2nnc(NC(=O)Cc3cccnc3)s2)s1 [Compound 14, N,N′-(5,5′-(sulfonylbis(ethane-2,1-diyl))bis(1,3,4-thiadiazole-5,2-diyl))bis(2-(pyridin-3-yl)acetamide)] |
| 100 to 500 | O=C(Cc1nn[nH]n1)Nc1nnc(CCCCc2nnc(NC(=O)Cc3nn[nH]n3)s2)s1 [Compound 71, N,N′-(5,5′-(butane-1,4-diyl)bis(1,3,4-thiadiazole-5,2-diyl))bis(2-(1H-tetrazol-5-yl)acetamide)] |
| 1000 to 10000 | O=C(Nc1nnc(CCCCc2nnc(NC(=O)C3(c4ccccc4)CC3)s2)s1)C1(c2ccccc2)CC1 [Compound 84] |
| < 100 | Cc1[nH]c2ccccc2c1CC(=O)Nc1nnc(CCCCc2nnc(NC(=O)Cc3c(C)[nH]c4ccccc34)s2)s1 [Compound 116, N,N′-(5,5′-(butane-1,4-diyl)bis(1,3,4-thiadiazole-5,2-diyl))bis(2-(2-methyl-1H-indol-3-yl)acetamide)] |
| 100 to 500 | O=C(CC1CCCCO1)Nc1nnc(CCS(=O)(=O)CCc2nnc(NC(=O)CC3CCCCO3)s2)s1 (centres unmarked) [Compound 33, N,N′-(5,5′-(2,2′-sulfonylbis(ethane-2,1-diyl))bis(1,3,4-thiadiazole-5,2-diyl))bis(2-(tetrahydro-2H-pyran-2-yl)acetamide)] |
| 500 to 1000 | CC(=O)Nc1nnc(CCCCc2nnc(NC(C)=O)s2)s1 [Compound 94, N,N′-(5,5′-(butane-1,4-diyl)bis(1,3,4-thiadiazole-5,2-diyl))diacetamide] |
| < 100 | O=C(Cc1noc2ccccc12)Nc1nnc(CCCCc2nnc(NC(=O)Cc3noc4ccccc34)s2)s1 [Compound 60, N,N′-(5,5′-(butane-1,4-diyl)bis(1,3,4-thiadiazole-5,2-diyl))bis(2-(benzo[d]isoxazol-3-yl)acetamide)] |
